Test results: ChEMBL document CHEMBL1148465, “Carbonic anhydrase inhibitors: the first selective, membrane-impermeant inhibitors targeting the tumor-associated isozyme IX” (Bioorg Med Chem Lett, 2004)

Columns and labels:
Carbonic anhydrase 9 = Carbonic anhydrase 9 (Homo sapiens, UniProt Q16790)
Description: Inhibitory activity against human carbonic anhydrase IX

Carbonic anhydrase 4 = biological target: T1, Carbonic anhydrase 4 (Bos taurus, UniProt Q95323)
T1 sequence (Q95323 whole entry): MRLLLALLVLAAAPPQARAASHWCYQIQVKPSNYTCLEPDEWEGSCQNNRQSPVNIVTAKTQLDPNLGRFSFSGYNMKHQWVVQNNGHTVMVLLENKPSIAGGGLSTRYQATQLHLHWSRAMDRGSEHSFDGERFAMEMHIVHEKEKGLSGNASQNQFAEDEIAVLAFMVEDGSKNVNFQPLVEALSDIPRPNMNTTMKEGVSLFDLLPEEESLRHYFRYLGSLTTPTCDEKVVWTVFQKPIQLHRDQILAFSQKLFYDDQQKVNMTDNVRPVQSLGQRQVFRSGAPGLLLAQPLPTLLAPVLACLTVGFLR
Description: Inhibitory activity against carbonic anhydrase IV from bovine lung microsomes

Carbonic anhydrase 1 = Carbonic anhydrase 1 (Homo sapiens, UniProt P00915)
Chain of Carbonic anhydrase 1 (P00915 whole entry): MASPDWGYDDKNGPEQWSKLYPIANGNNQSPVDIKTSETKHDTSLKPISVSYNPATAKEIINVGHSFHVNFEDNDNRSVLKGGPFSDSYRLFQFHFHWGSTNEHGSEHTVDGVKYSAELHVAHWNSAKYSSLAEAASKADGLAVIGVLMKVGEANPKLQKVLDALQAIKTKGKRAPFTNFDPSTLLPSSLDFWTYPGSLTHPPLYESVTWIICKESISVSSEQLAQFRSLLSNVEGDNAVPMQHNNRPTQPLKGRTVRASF
Description: Inhibitory activity against human carbonic anhydrase I

Carbonic anhydrase 2 = Carbonic anhydrase 2 (Homo sapiens, UniProt P00918)
Description: Inhibitory activity against human carbonic anhydrase II

Row | Structure (SMILES) | Ki (Carbonic anhydrase 9) | Ki (Carbonic anhydrase 4) | Ki (Carbonic anhydrase 1) | Ki (Carbonic anhydrase 2)
1 | CC(C)(C)c1cc(-c2ccccc2)cc(-c2ccccc2)[n+]1Cc1ccc(S(N)(=O)=O)cc1 | > 0.5 µM | – | – | –
2 | NS(=O)(=O)c1ccc(C[n+]2c(-c3ccccc3)cccc2-c2ccccc2)cc1 | – | 1.95 µM | 280 µM | –
3 | Cc1cc(-c2ccccc2)cc(C)[n+]1Cc1ccc(S(N)(=O)=O)cc1 | – | 0.07 µM | 4 µM | –
4 | CC(C)c1cc(-c2ccccc2)cc(-c2ccccc2)[n+]1Cc1ccc(S(N)(=O)=O)cc1 | – | – | 112 µM | –
5 | CCCc1cc(-c2ccccc2)cc(-c2ccccc2)[n+]1CCc1ccc(S(N)(=O)=O)cc1 | – | – | 112 µM | –
6 | CCCCc1cc(-c2ccccc2)cc(-c2ccccc2)[n+]1Cc1ccc(S(N)(=O)=O)cc1 | 0.135 µM | 2.1 µM | 300 µM | 0.595 µM
7 | CC(C)c1cc(-c2ccccc2)cc(-c2ccccc2)[n+]1-c1ccc(S(N)(=O)=O)cc1 | > 0.5 µM | 2.1 µM | – | –
8 | CC(C)(C)c1cc(-c2ccccc2)cc(-c2ccccc2)[n+]1CCc1ccc(S(N)(=O)=O)cc1 | > 0.5 µM | – | – | –
9 | NS(=O)(=O)c1ccc(-[n+]2c(-c3ccccc3)cc(-c3ccccc3)cc2-c2ccccc2)cc1 | > 0.5 µM | – | 290 µM | –
10 | CCCc1cc(-c2ccccc2)cc(-c2ccccc2)[n+]1-c1ccc(S(N)(=O)=O)cc1 | > 0.5 µM | – | – | –
11 | Cc1cc(C(C)C)[n+](Cc2ccc(S(N)(=O)=O)cc2)c(C(C)C)c1 | – | 0.144 µM | – | –
12 | NS(=O)(=O)c1ccc(C[n+]2c(-c3ccccc3)cc(-c3ccccc3)cc2-c2ccccc2)cc1 | 0.12 µM | 1.96 µM | 280 µM | –
13 | CCCCc1cc(-c2ccccc2)cc(-c2ccccc2)[n+]1CCc1ccc(S(N)(=O)=O)cc1 | 0.12 µM | – | 290 µM | –
14 | CC(C)c1cc(-c2ccccc2)cc(C(C)C)[n+]1-c1ccc(S(N)(=O)=O)cc1 | – | – | 5 µM | –
15 | CCCCc1cc(-c2ccccc2)cc(-c2ccccc2)[n+]1-c1ccc(S(N)(=O)=O)cc1 | > 0.5 µM | – | – | –

Continued by falling Ki (Carbonic anhydrase 1), values first:

Row | Ki (Carbonic anhydrase 9) | Ki (Carbonic anhydrase 4) | Ki (Carbonic anhydrase 1) | Ki (Carbonic anhydrase 2) | Structure (SMILES)
16 | 0.079 µM | 0.983 µM | 42 µM | 0.314 µM | CCc1cc(-c2ccccc2)cc(-c2ccccc2)[n+]1Cc1ccc(S(N)(=O)=O)cc1
17 | – | – | 40 µM | – | CCc1cc(-c2ccccc2)cc(-c2ccccc2)[n+]1CCc1ccc(S(N)(=O)=O)cc1
18 | – | – | 40 µM | – | Cc1cc(-c2ccccc2)cc(-c2ccccc2)[n+]1-c1ccc(S(N)(=O)=O)cc1
19 | – | – | 10 µM | – | Cc1cc(C)[n+](-c2ccc(S(N)(=O)=O)cc2)c(C)c1
20 | – | – | 10 µM | – | CCCc1cc(-c2ccccc2)cc(CCC)[n+]1-c1ccc(S(N)(=O)=O)cc1
21 | – | – | 7 µM | – | CCCc1cc(-c2ccccc2)cc(CCC)[n+]1CCc1ccc(S(N)(=O)=O)cc1
22 | – | – | 7 µM | 0.05 µM | Cc1cc(C)[n+](Cc2ccc(S(N)(=O)=O)cc2)c(C)c1
23 | – | – | 7 µM | 0.06 µM | Cc1cc(-c2ccccc2)cc(C)[n+]1-c1ccc(S(N)(=O)=O)cc1
24 | – | – | 6 µM | 0.05 µM | Cc1cc(C)[n+](Cc2ccc(S(N)(=O)=O)cc2)c(C(C)C)c1
25 | – | – | 6 µM | 0.021 µM | CC(C)c1cc(-c2ccccc2)cc(C(C)C)[n+]1CCc1ccc(S(N)(=O)=O)cc1
26 | – | – | 6 µM | 0.06 µM | CCc1cc(-c2ccccc2)cc(CC)[n+]1-c1ccc(S(N)(=O)=O)cc1
27 | – | – | 5 µM | – | Cc1cc(C)[n+](-c2ccc(S(N)(=O)=O)cc2)c(C)c1C
28 | – | 0.07 µM | 3 µM | 0.02 µM | Cc1cc(C(C)C)[n+](CCc2ccc(S(N)(=O)=O)cc2)c(C(C)C)c1
29 | – | – | 3 µM | – | Cc1cc(C)[n+](Cc2ccc(S(N)(=O)=O)cc2)c(C)c1C
30 | – | – | 2 µM | 0.021 µM | CCc1cc(-c2ccccc2)cc(CC)[n+]1Cc1ccc(S(N)(=O)=O)cc1
31 | – | – | 2 µM | – | Cc1cc(C)[n+](CCc2ccc(S(N)(=O)=O)cc2)c(C(C)C)c1
32 | 0.008 µM | 0.021 µM | 2 µM | – | Cc1cc(C)[n+](CCc2ccc(S(N)(=O)=O)cc2)c(C)c1C
33 | 0.008 µM | 0.021 µM | 1 µM | – | CCc1cc(-c2ccccc2)cc(CC)[n+]1CCc1ccc(S(N)(=O)=O)cc1
34 | – | – | 1 µM | – | Cc1cc(-c2ccccc2)cc(C)[n+]1CCc1ccc(S(N)(=O)=O)cc1
